In patent US20260176283A1, “IONIZABLE LIPIDS WITH LINEAR HEAD GROUPS” (Beam Therapeutics Inc., priority 2023, published 2026):

Tests used:
[1] = LNP preparation characterization (encapsulation efficiency, DLS size and polydispersity), barcoded screen LNPs; assay type: physicochemical; conditions: LNP 47.5% ionizable lipid: 40% cholesterol: 2.5% PEG-2000 DMG: 10% DPSC, N/P 4.5-6; for AVG PDI / AVG Z Dia (nm): DLS
Procedure: Lipid nanoparticle components were dissolved in 100% ethanol at specified lipid component molar ratios. Nucleic acid (NA) cargo was dissolved in 10 mM citrate, 100 mM NaCl, pH 4.0, resulting in a concentration of NA cargo of approximately 0.22 mg/mL. In some embodiments, NA cargos included both a functional NA and a reporter barcode mixed at mass ratios of 1:10 to 10:1 functional NA to barcode. As described herein, a NA can be a siRNA, an anti-sense, an expressing DNA, or mRNA.
LNP preparations were prepared with 47.5% Ionizable Lipid (e.g., a compound provided herein): 40% cholesterol: 2.5% PEG-2000 DMG: 10% DPSC and an N/P ratio range of 4.5-6. LNP preparations were formed by microfluidic mixing of the lipid and NA solutions using Precision Nanosystems NanoAssemblr Spark or Benchtop series Instruments, according to the manufacturer's protocol.
A ratio of aqueous to organic solvent of approximately 2:1 or 3:1 was maintained during mixing using differential flow rates. After mixing, LNP preparations were collected, diluted in phosphate buffer saline (PBS) or Tris-buffered saline (TBS) (approximately 1:1 v/v). Further buffer exchange was conducted using dialysis in PBS or TBS at 4° C. for 4 to 24 hours against a 20 kDa filter. After this initial dialysis, each individual LNP preparation may be characterized via dynamic light scattering (DLS) to measure the size (e.g., diameter) and polydispersity. LNP preparations falling within specific diameter and polydispersity ranges were pooled, and further dialyzed against PBS or TBS at 4° C. for 1 to 4 hours against a 100 kDa dialysis cassette. After the second dialysis, LNP preparations were sterile filtered using 0.22 μm filter and stored at 4° C. for further use.

[2] = LNP characterization of base editor LNP preparations (DLS diameter, PDI, encapsulation efficiency); assay type: physicochemical
Procedure: (§1) Lipid nanoparticle components are dissolved in 100% ethanol at specified lipid component molar ratios. mRNA encoding an adenine base editor and a chemically-modified sgRNA is dissolved at a mass ratio of 1:1 in 10 mM citrate, 100 mM NaCl, pH 4.0, resulting in a concentration of NA cargo of approximately 0.22 mg/mL. LNP preparations are formulated with molar ratios of either 50% Ionizable Lipid: 38.5% Cholesterol: 1.5% PEG2000-DMG: 10% DSPC or 47.5% Ionizable Lipid: 40% Cholesterol: 2.5% PEG2000-DMG: 10% DSPC both at a total lipid to NA molar ratio of 6.
(§2) LNP preparations are formed by microfluidic mixing of the lipid and NA solutions using a Precision Nanosystems NanoAssemblr Ignite Instrument, according to the manufacturer's protocol. A 3:1 ratio of aqueous to organic solvent is maintained during mixing using differential flow rates. After mixing, LNP preparations are collected, diluted in PBS (approximately 2:1 v/v), and further buffer exchange is conducted using dialysis in PBS at 4° C. for 8 to 24 hours against a 20 kDa filter. After this initial dialysis, each individual LNP preparation is characterized via dynamic light scattering (DLS) to measure size and polydispersity. pKa of a subpopulation of LNP preparations is measured via TNS assay. After dialysis, LNP preparations are sterile filtered using 0.22 micron sterile filter and stored at 4° C. for further use. In some embodiments, LNP preparations may be concentrated using 100 kDa Amicon filters per manufacturer's protocol.
DLS—LNP preparation hydrodynamic diameter and polydispersity index (PDI) is measured using high throughput dynamic light scattering (DLS) (DynaPro plate reader II, Wyatt). LNP preparations are diluted 1×PBS to an appropriate concentration and analyzed.
Concentration of NA is determined by Qubit microRNA kit (for siRNA) or HS RNA kit (for mRNA) per manufacturer's instructions. Encapsulation efficiency is determined by measuring unlysed and lysed LNPs.

ALAS1 target site = test: In vivo base editing with ABE mRNA and sgRNA targeting ALAS1; parameters: species or system Balb/c mice; conditions: for Liver Editing A->G (%): 4 days after dosing
Procedure: as §1, §2
Male Balb/C mice aged approximately 8-12 weeks are used in the experiments described herein. Each mouse is temporarily restrained, and LNP preparations are administered IV via tail vein injection. Age-matched mice are also used to administer vehicle (1×PBS) via tail vein injection as a control. Four to six days post-dose, tissues including liver, spleen, heart and muscle are collected (only liver and muscle (quardracept) are reported). Genomic DNA is isolated and fragmented and adapter-ligated using the Nextera DNA Flex Library Prep Kit (Illumina) using the 96-well plate Nextera indexing primers (Illumina), according to the manufacturer's instructions. Library size and concentration is confirmed by Fragment Analyzer (Agilent) and sent to Novogene for whole genome sequencing using an Illumina HiSeq.
For base editing, mRNA encoding an adenine base editor (ABE) and a guide RNA (sgRNA) targeting ALAS1 at 1:1 (mass ratio) are coencapsulated in LNP preparations as described herein. LNP preparations are administrated into Balb/c mice through tail vein injections at concentrations ranging from 0.05 to 3.0 mg/kg total RNA. At 4 days after dosing, mice are euthanized and liver, spleen and bone barrow are harvested. Base editing is determined by performing targeted deep sequencing analysis at the ALAS1 target site using extracted genomic DNA.

[3] = Table D LNPs, formulation ratio 50:38.5:1.5:10, ABE mRNA/ALAS1 sgRNA
[4] = dose 3 MPK IV, formulation ratio 50:38.5:1.5:10, liver
[5] = dose 3 MPK IV, formulation ratio 50:38.5:1.5:10, quadricep muscle
[6] = Table C LNPs, formulation ratio 47.5:40:2.5:10, ABE mRNA/ALAS1 sgRNA
[7] = dose 0.05 MPK IV, formulation ratio 47.5:40:2.5:10, liver

Row | SMILES | AVG EE(%) [1] | AVG PDI [1] | AVG Z Dia (nm) [1] | Diameter (nm) [2, 3] | EE (%) [2, 3] | PDI (%) [2, 3] | Diameter (nm) [2, 6] | EE (%) [2, 6] | PDI (%) [2, 6] | Liver Editing A->G (%) (ALAS1 target site; [4]) | Quadrecept Editing A->G (%) (ALAS1 target site; [5]) | Liver Editing A->G (%) (ALAS1 target site; [7]) | Liver Editing A->G (%) (ALAS1 target site; dose 0.05 MPK IV, formulation ratio 50:38.5:1.5:10, liver) | Quadrecept Editing A->G (%) (ALAS1 target site; dose 3 MPK IV, formulation ratio 47.5:40:2.5:10, quadricep muscle) | Liver Editing A->G (%) (ALAS1 target site; dose 1.5 MPK IV, formulation ratio 50:38.5:1.5:10, liver) | Quadrecept Editing A->G (%) (ALAS1 target site; dose 1.5 MPK IV, formulation ratio 50:38.5:1.5:10, quadricep muscle)
1 | C=CCCCCCCC(CCCCCCC=C)OC(=O)CCCCC(=O)OCC(COC(=O)CCCCC(=O)OC(CCCCCCC=C)CCCCCCC=C)COC(=O)CCCN1CCCC1 [Compound (3), 1-Heptadeca-1,16-dien-9-yl6-[2-({[6-(hentadeca-1,16-dien-9-yloxy)-6-oxohexanoyl]oxy}methyl)-3-{[4-(pyrrolidin-1-yl)butanoyl]oxy}propyl]hexanedioate] | 85.3% | 0.13 | 77.22 nm | 69.8 nm | 99.3% | 11.9% |  |  |  | 69.43% | 3.8% |  |  |  |  | 
2 | CCCCCCCC(CCCCCCC)OC(=O)CCCCCC(=O)OCC(COC(=O)CCCCCC(=O)OC(CCCCCCC)CCCCCCC)COC(=O)CCCN1CCCC1 [Compound (21), O1-[2-[[7-(1-heptyloctoxy)-7-oxo-heptanoyl]oxymethyl]-3-(4-pyrrolidin-1-ylbutanoyloxy)propyl] O7-(1-heptyloctyl) heptanedioate] | 95.1% | 0.13 | 75.95 nm |  |  |  | 62.08 nm | 98.19% | 6% |  |  | 0.5% |  |  |  | 
3 | C=CCCCCCC(CCCCCC=C)OC(=O)CCCCCC(=O)OCC(COC(=O)CCCCCC(=O)OC(CCCCCC=C)CCCCCC=C)COC(=O)OCC1CCCN(CC)C1 (stereo not shown) [Compound (25), O1-[2-[(1-ethyl-3-piperidyl)methoxycarbonyloxymethyl]-3-[7-(1-hept-6-enyloct-7-enoxy)-7-oxo-heptanoyl]oxy-propyl] O7-(1-hept-6-enyloct-7-enyl) heptanedioate] | 94.4% | 0.12 |  | 79.55 nm | 96.9% |  | 75.47 nm | 99.1% | 1.2% |  |  |  | 0.27% | 2.93% |  | 
4 | O=C(CCCCCCC(=O)OC(CCCCCC(F)(F)F)CCCCCC(F)(F)F)OCC(COC(=O)CCCCCCC(=O)OC(CCCCCC(F)(F)F)CCCCCC(F)(F)F)COC(=O)CCCN1CCCC1 [Compound (16), 1-(1,1,1,13,13,13-Hexafluorotridecan-7-yl)-8-{2-[({8-[(1,1,1,13,13,13-hexafluorotridecan-7-yl)oxy]-8-oxooctanoyl}oxy)methyl]-3-{[4-(pyrrolidin-1-yl)butanoyl]oxy}propyl} octanedioate] | 64.3% | 0.09 | 129.85 nm | 96.8 nm | 96.3% | 13.5% |  |  |  | 72.41% | 0.6% |  |  |  |  | 

Further lines, with some results ahead:

Row | AVG EE(%) [1] | AVG PDI [1] | AVG Z Dia (nm) [1] | Diameter (nm) [2, 3] | EE (%) [2, 3] | PDI (%) [2, 3] | Diameter (nm) [2, 6] | EE (%) [2, 6] | PDI (%) [2, 6] | SMILES | Liver Editing A->G (%) (ALAS1 target site; [4]) | Quadrecept Editing A->G (%) (ALAS1 target site; [5]) | Liver Editing A->G (%) (ALAS1 target site; [7]) | Liver Editing A->G (%) (ALAS1 target site; dose 0.05 MPK IV, formulation ratio 50:38.5:1.5:10, liver) | Quadrecept Editing A->G (%) (ALAS1 target site; dose 3 MPK IV, formulation ratio 47.5:40:2.5:10, quadricep muscle) | Liver Editing A->G (%) (ALAS1 target site; dose 1.5 MPK IV, formulation ratio 50:38.5:1.5:10, liver) | Quadrecept Editing A->G (%) (ALAS1 target site; dose 1.5 MPK IV, formulation ratio 50:38.5:1.5:10, quadricep muscle)
5 | 98.3% | 0.10 | 133.71 nm | 179.7 nm | 75.69% | 23.4% |  |  |  | C=CCCCC(CCCC=C)OC(=O)CCCCC(=O)OCC(COC(=O)CCCCC(=O)OC(CCCC=C)CCCC=C)COC(=O)CCCN1CCCC1 [Compound (33), 1-[2-({[6-Oxo-6-(undeca-1,10-dien-6-yloxy)hexanoyl]oxy}methyl)-3-{[4-(pyrrolidin-1-yl)butanoyl]oxy}propyl] 6-undeca-1,10-dien-6-yl hexanedioate] |  | 0.1% |  |  |  |  | 
6 | 78.0% | 0.10 | 97.43 nm | 73.7 nm | 98.07% | 15.3% |  |  |  | C=CCCCCC(CCCCC=C)OC(=O)CCCCCCC(=O)OCC(COC(=O)CCCCCCC(=O)OC(CCCCC=C)CCCCC=C)COC(=O)CCCN1CCCC1 [Compound (6), 1-[2-({[8-Oxo-8-(trideca-1,12-dien-7-yloxy)octanoyl]oxy}methyl)-3-{[4-(pyrrolidin-1-yl)butanoyl]oxy}propyl]-8-trideca-1,12-dien-7-yl octanedioate] | 78.46% | 1.17% |  |  |  |  | 
7 | 85.8% | 0.12 | 78.47 nm | 72.6 nm | 98.18% | 11.4% |  |  |  | CCC/C=C\CCC(CC/C=C\CCC)OC(=O)CCCCCC(=O)OCC(COC(=O)CCCCCC(=O)OC(CC/C=C\CCC)CC/C=C\CCC)COC(=O)CCCN1CCCC1 [Compound (23), 1-{2-[({7-Oxo-7-[(4Z,11Z)-pentadeca-4,11-dien-8-yloxy]heptanoyl}oxy)methyl]-3-{[4-(pyrrolidin-1-yl)butanoyl]oxy}propyl} 7-(4Z,11Z)-pentadeca-4,11-dien-8-ylheptanedioate] |  |  |  |  |  | 80.09% | 4.81%
8 |  |  |  |  |  |  | 71.15 nm | 98.71% | 11.8% | CC/C=C\CCCC(CCC/C=C\CC)OC(=O)CCCCCC(=O)OCC(COC(=O)CCCCCC(=O)OC(CCC/C=C\CC)CCC/C=C\CC)COC(=O)NCCN1CCCC1 [Compound (28), 1-{2-[({7-oxo-7-[(3Z,12Z)-pentadeca-3,12-dien-8-yloxy]heptanoyl}oxy)methyl]-3-({[2-(pyrrolidin-1-yl)ethyl]carbamoyl}oxy)propyl}7-(3Z,12Z)-pentadeca-3,12-dien-8-ylheptanedioate] |  |  | 0.65% |  |  |  | 
9 |  |  |  | 83.2 nm | 74.33% | 18.7% |  |  |  | C=CCCCCCC(CCCCCC=C)OC(=O)CCCCC(=O)OCC(COC(=O)CCCCC(=O)OC(CCCCCC=C)CCCCCC=C)COC(=O)CCCN1CCCC1 [Compound (11), 1-[2-({[6-Oxo-6-(pentadeca-1,14-dien-8-yloxy)hexanoyl]oxy}methyl)-3-{[4-(pyrrolidin-1-yl)butanoyl]oxy}propyl]6-pentadeca-1,14-dien-8-yl hexanedioate] | 17.19% | 0.11% |  |  |  |  | 
